# What was measured:
# Type in all cases: in vivo, human
# [1] = Additional sensory testing for vanilla milk (panel of flavorists); conditions: 400 ppm mogrosides, 0 to 10 scale, letter in parentheses = Duncan's test group
# Experimental: (§1) A panel of flavorists at three locations evaluated vanilla milk containing various mogrosides at a concentration of 400 ppm mogrosides for in-mouth attributes (peak sweetness, upfront sweetness, bitterness, and mouthfeel/thickness) and aftertaste attributes (sweet taste linger), on a 0 to 10 scale. The in-mouth attributes were evaluated while holding the sample in the mouth, while the aftertaste attributes were evaluated after expectoration. The data was analyzed using Duncan's new multiple range test and the scores are provided in the data below in parentheses.
# [2] = Expert panelists' comparison of mogrosides with Stevia; conditions: "Examples 4 and 5", in words
# [3] = Sensory testing for lemon-lime carbonated soft drink (panel of volunteers)
# Experimental: (§2) A panel of volunteers evaluated isomogroside IVE for in-mouth attributes (sweetness, delayed sweetness, sourness, bitterness, global flavor intensity, thickness/body, and astringence) and aftertaste (AT) attribtues (lingering sweetness, overall off-taste intensity, licorice off-tast, bitterness off-taste, and mouth coating) on a 10-point scale. Two replicate sessions were conducted, with a 20 minute break between sessions. There was a 90 second delay between samples within a session. Panelists evaluated all samples in a first session and evaluated the samples again a second time in a second session. Control samples of Rebaudioside M (Reb M) were evaluated during all sessions as a control. Mogroside V was also evaluated and sensory data for mogroside V is provided.
# (§3) Data analysis was performed using 2-way analysis of variance (ANOVA) with interaction using Tukey's HSD test. The data was normalized for each attribute according to average scores for Reb M.
# A panel of volunteers evaluated the isomogroside IVE-containing lemon-lime carbonated soft drink for in-mouth attributes and aftertaste attributes according to the methods described in Example 1 above.
# [4] = Additional sensory testing for lemon-flavored (lemon-lime) beverage (panel of flavorists); conditions: 600 ppm mogrosides, 0 to 10 scale, letter in parentheses = Duncan's test group
# Experimental: as §1, with “lemon-lime beverage” for “vanilla milk containing”, “600” for “400”, “expectoration.” for “expectoration. The data was analyzed using Duncan's new multiple range test and the scores are provided in the data below in parentheses.”
# [5] = Sensory testing for apple drink (panel of volunteers); conditions: for Bitterness / Delayed Sweetness / Global Flavor Intensity / Sweetness / Thickness/Body: in-mouth, normalized to Reb M
# Experimental: as §2, §3
# [6] = Sensory testing for sparkling orange beverage (panel of volunteers)
# Experimental: as §2, §3
# A panel of volunteers evaluated a sparkling orange beverage containing isomogroside IVE for in-mouth attributes and aftertaste attributes according to the methods described in Example 1 above.
# [7] = Sensory testing for vanilla milk (panel of volunteers); conditions: for Licorice Aftertaste / Lingering Sweetness / Mouth Coating / Overall Off-Taste: aftertaste
# Experimental: as §2, §3
# A panel of volunteers evaluated vanilla milk containing isomogroside IVE for in-mouth attributes and aftertaste attributes according to the methods described in Example 1 above.
# [8] = 600 ppm (mogroside V 600 mg [sic]), aftertaste, 10-point scale, normalized
# [9] = 600 ppm (mogroside V 600 mg [sic]), in-mouth, 10-point scale, normalized
# [10] = 250 ppm (mogroside V 250 mg [sic]), aftertaste, 10-point scale
# [11] = 250 ppm (mogroside V 250 mg [sic]), 10-point scale
# [12] = 500 ppm (mogroside V 500 mg [sic]), aftertaste, 10-point scale
# [13] = 500 ppm (mogroside V 500 mg [sic]), 10-point scale
# [14] = same concentration of Reb M, in words
# [15] = 250 ppm (mogroside V 250 mg [sic]), aftertaste, 10-point scale, normalized
# [16] = 250 ppm (mogroside V 250 mg [sic]), in-mouth, 10-point scale, normalized
# [17] = 200 ppm (mogroside V 200 mg [sic]), 10-point scale, normalized
# [18] = 200 ppm (mogroside V 200 mg [sic]), in-mouth, 10-point scale, normalized
# [19] = 400 ppm (mogroside V 400 mg [sic]), 10-point scale, normalized
# [20] = 400 ppm (mogroside V 400 mg [sic]), in-mouth, 10-point scale, normalized
structure (smiles),measurement,setting,value
C[C@H](CC[C@@H](O[C@@H]1O[C@H](CO)[C@@H](O)[C@H](O)[C@H]1O[C@@H]1O[C@H](CO)[C@@H](O)[C@H](O)[C@H]1O)C(C)(C)O)[C@@]1(C)CC[C@@]2(C)[C@@H]3CC=C4[C@@H](CC[C@H](O[C@@H]5O[C@H](CO)[C@@H](O[C@@H]6O[C@H](CO)[C@@H](O)[C@H](O)[C@H]6O)[C@H](O)[C@H]5O)C4(C)C)[C@]3(C)[C@H](O)C[C@@]21C [isomogroside IVE],Sweet Linger,[1]; aftertaste after expectoration,4.563 (b)
same,Bitterness,[1]; in-mouth,1.313 (ab)
same,Mouthfeel/Thickness,[1]; in-mouth,4.125 (b)
same,Peak Sweetness,[1]; in-mouth,5.938 (c)
same,Upfront Sweetness,[1]; in-mouth,5.125 (b)
same,Bitter aftertaste compared with Stevia,[2],lower bitter aftertaste
same,Licorice aftertaste compared with Stevia,[2],lower licorice aftertaste
same,Mouthfeel compared with Stevia,[2],better mouthfeel
same,Bitterness Aftertaste,[3]; [8],1.8
same,Licorice Aftertaste,[3]; [8],2.9
same,Lingering Sweetness,[3]; [8],4.2
same,Overall Off-Taste,[3]; [8],3.8
same,Bitterness,[3]; [9],2.2
same,Delayed Sweetness,[3]; [9],3.5
same,Global Flavor Intensity,[3]; [9],5.0
same,Sweetness,[3]; [9],5.0
same,Sweetness compared with Reb M,"[3]; 600 ppm, in words",overall lower sweetness
same,Global flavor intensity compared with mogroside V,[3]; in words,higher global flavor intensity
same,Sweetness compared with mogroside V,[3]; in words,comparable sweetness
same,Sweet Linger,[4]; aftertaste after expectoration,3.429 (c)
same,Bitterness,[4]; in-mouth,1.857 (a)
same,Mouthfeel/Thickness,[4]; in-mouth,2.714 (b)
same,Peak Sweetness,[4]; in-mouth,4.857 (c)
same,Upfront Sweetness,[4]; in-mouth,3.571 (b)
same,Bitterness Aftertaste,[5]; [10],1.5
same,Licorice Aftertaste,[5]; [10],2.4
same,Lingering Sweetness,[5]; [10],3.0
same,Overall Off-Taste,[5]; [10],3.2
same,Bitterness,[5]; [11],1.4
same,Delayed Sweetness,[5]; [11],2.1
same,Global Flavor Intensity,[5]; [11],3.3
same,Sweetness,[5]; [11],3.9
same,Thickness/Body,[5]; [11],1.6
same,Licorice Aftertaste,[5]; [12],2.2
same,Lingering Sweetness,[5]; [12],3.4
same,Mouth Coating,[5]; [12],2.0
same,Overall Off-Taste,[5]; [12],3.1
same,Bitterness,[5]; [13],1.9
same,Delayed Sweetness,[5]; [13],2.6
same,Global Flavor Intensity,[5]; [13],3.5
same,Sweetness,[5]; [13],4.5
same,Thickness/Body,[5]; [13],1.6
same,Overall off-taste compared with mogroside V,"[5]; aftertaste, in words",lower overall off-taste
same,Lingering sweetness aftertaste compared with Reb M,"[5]; at both 250 ppm and 500 ppm, in words",significantly improved
same,Bitterness compared with mogroside V,[5]; in words,lower bitterness
same,Global flavor intensity compared with mogroside V,[5]; in words,higher
same,Sweetness compared with mogroside V,[5]; in words,higher sweetness
same,Thickness/body compared with mogroside V,[5]; in words,higher thickness/body
same,Global flavor intensity compared with Reb M,[5]; [14],lower global flavor intensity
same,Sweetness compared with Reb M,[5]; [14],somewhat less sweet
same,Licorice Aftertaste,[6]; [15],2.1
same,Lingering Sweetness,[6]; [15],3.9
same,Mouth Coating,[6]; [15],1.9
same,Overall Off-Taste,[6]; [15],3.3
same,Delayed Sweetness,[6]; [16],3.5
same,Sweetness,[6]; [16],4.9
same,Delayed sweetness compared with Reb M,"[6]; 250 ppm, in words",slightly increased delayed sweetness
same,Sweetness compared with Reb M,"[6]; 250 ppm, in words",overall lower sweetness
same,Licorice Aftertaste,[7]; [17],0.8
same,Lingering Sweetness,[7]; [17],2.6
same,Mouth Coating,[7]; [17],2.9
same,Overall Off-Taste,[7]; [17],2.1
same,Astringence,[7]; [18],0.5
same,Delayed Sweetness,[7]; [18],1.7
same,Fattiness,[7]; [18],2.9
same,Sourness,[7]; [18],0.5
same,Sweetness,[7]; [18],5.1
same,Licorice Aftertaste,[7]; [19],1.4
same,Lingering Sweetness,[7]; [19],3.7
same,Mouth Coating,[7]; [19],0.9
same,Overall Off-Taste,[7]; [19],2.0
same,Astringence,[7]; [20],0.7
same,Bitterness,[7]; [20],1.0
same,Delayed Sweetness,[7]; [20],2.5
same,Fattiness,[7]; [20],3.9
same,Global Flavor Intensity,[7]; [20],4.6
same,Sourness,[7]; [20],0.8
same,Sweetness,[7]; [20],6.8
same,Bitterness compared with mogroside V,"[7]; at 400 ppm, in words",lower bitterness
same,Fattiness compared with mogroside V,"[7]; at 400 ppm, in words",higher
same,Global flavor intensity compared with mogroside V,"[7]; at 400 ppm, in words",higher
same,Sweetness compared with Reb M,"[7]; at both 200 ppm and 400 ppm, in words",increased sweetness
same,Sweetness compared with mogroside V,[7]; in words,higher sweetness

# From US20240188613A1, “SWEETENER COMPOSITIONS COMPRISING MOGROSIDES AND USES THEREOF” (Firmenich Incorporated, priority 2021, published 2024)
